# According to patent US8507674B2, “Quorum sensing inhibitor” (The University of Tokyo, priority 2007, dated 2013):
# Legend:
# Burkholderia glumae [1] = assay: Test Example 9: amount of toxoflavin produced in culture solution, with comparative compound; type: cell-based; conditions: 0, 20, 40, 60, 80 or 100 μM, shake culturing 20 hours, FIG. 6
# Method: Burkholderia glumae was inoculated into an LB culture medium (produced by BD (Difco LB Broth: containing tryptone (10.0 g), yeast extract (5.0 g), and sodium chloride (10.0 g)), and cultured at 37° C. overnight. The thus-obtained culture solution was subjected to bacterial collection using a centrifuge, and washed with an LB culture medium twice using a fresh LB culture medium each time. To the bacterial cell a fresh LB culture medium was added, and then Compound (1) produced in Production Example 1 was added thereto in such a manner that its final concentration became a predetermined value (i.e., 0, 20, 40, 60, 80 or 100 μM), followed by shake culturing for 20 hours. The amount of toxoflavin produced by the bacterial cell in the culture solution was obtained by the following procedure.
# Each culture solution was filtered by a 0.22-μm membrane filter, and 1 mL of the filtrate was isolated. One mL of chloroform was added to the filtrate, followed by extraction. The thus-obtained chloroform layer was concentrated under reduced pressure, and an 80% (V/V) an aqueous methanol solution was added to and dissolved in the residue. The absorbance (at 260 nm) of the solution was measured, and the toxin doses were calculated from the calibration curve, which was obtained using chemically synthesized standard toxin. […]
# Burkholderia glumae [2] = assay: Test Example 6: onset of infection on rice, test liquid sprayed after infection; type: in vivo; conditions: for percentage of flower clusters with score 0: score 0 = less than 0.1% diseased; for percentage of flower clusters with score 0 / percentage of flower clusters with score 1 / percentage of flower clusters with score 2 / percentage of flower clusters with score 3 / percentage of flower clusters with score 4 / percentage of flower clusters with score 5: rice, 7 days; for percentage of flower clusters with score 1: score 1 = 0.1-20% diseased; for percentage of flower clusters with score 2: score 2 = 20-40% diseased; for percentage of flower clusters with score 3: score 3 = 40-60% diseased; for percentage of flower clusters with score 4: score 4 = 60-80% diseased; for percentage of flower clusters with score 5: score 5 = 80-100% diseased
# Method: A test liquid and a culture solution for infection were prepared in the same manner as in Test Example 5, and the culture solution for infection was sprayed onto Korean rice (Milyang 23) raised in a hothouse until the flowering stage. One hour after the spraying, each test liquid (10 mL) was sprayed onto the rice. After cultivation for seven days, the onset of Burkholderia glumae infection on the rice was evaluated in the same manner as in Test Example 4. The same evaluation was conducted as the comparative test in the same manner except that water was used instead of the test liquid. Further, the same evaluation was conducted to serve as a blank using water instead of both the test liquid and the culture solution for infection.
# [3] = 50 μM sprayed 1 h after infection
# [4] = 100 μM sprayed 1 h after infection
# [5] = 200 μM sprayed 1 h after infection
smiles,measurement,setting,value
"CCCc1cc(=O)n2cccc(O)c2n1 [Compound (1), 2-n-propyl-9-hydroxy-4H-pyrid[1,2-a]pyrimidin-4-one]",toxin doses produced by bacteria (toxoflavin),Burkholderia glumae [1],remarkably decreased
same,percentage of flower clusters with score 0,Burkholderia glumae [2]; [3],88%
same,percentage of flower clusters with score 0,Burkholderia glumae [2]; [4],85%
same,percentage of flower clusters with score 0,Burkholderia glumae [2]; [5],89%
same,percentage of flower clusters with score 1,Burkholderia glumae [2]; [3],2%
same,percentage of flower clusters with score 1,Burkholderia glumae [2]; [4],5%
same,percentage of flower clusters with score 1,Burkholderia glumae [2]; [5],3%
same,percentage of flower clusters with score 2,Burkholderia glumae [2]; [3],4%
same,percentage of flower clusters with score 2,Burkholderia glumae [2]; [4],3%
same,percentage of flower clusters with score 2,Burkholderia glumae [2]; [5],3%
same,percentage of flower clusters with score 3,Burkholderia glumae [2]; [3],2%
same,percentage of flower clusters with score 3,Burkholderia glumae [2]; [4],3%
same,percentage of flower clusters with score 3,Burkholderia glumae [2]; [5],2%
same,percentage of flower clusters with score 4,Burkholderia glumae [2]; [3],2%
same,percentage of flower clusters with score 4,Burkholderia glumae [2]; [4],2%
same,percentage of flower clusters with score 4,Burkholderia glumae [2]; [5],2%
same,percentage of flower clusters with score 5,Burkholderia glumae [2]; [3],2%
same,percentage of flower clusters with score 5,Burkholderia glumae [2]; [4],2%
same,percentage of flower clusters with score 5,Burkholderia glumae [2]; [5],1%
same,onset of Burkholderia glumae on rice,"Burkholderia glumae [2]; test liquid 50, 100 or 200 μM sprayed after the culture solution for infection",prevented
